Assays:
Test in all cases: stopped-flow CO2 hydration assay
Format in all cases: biochemical
[1] = target: T1, SspCA (Sulfurihydrogenibium sp. YO3AOP1, UniProt B2V8E3); settings: read-out: Inhibition constant, Ki (μM) / α-family / Ssp
T1 construct: recombinant bacterial alpha-CA, produced as reported earlier
T1 sequence (B2V8E3 21-246): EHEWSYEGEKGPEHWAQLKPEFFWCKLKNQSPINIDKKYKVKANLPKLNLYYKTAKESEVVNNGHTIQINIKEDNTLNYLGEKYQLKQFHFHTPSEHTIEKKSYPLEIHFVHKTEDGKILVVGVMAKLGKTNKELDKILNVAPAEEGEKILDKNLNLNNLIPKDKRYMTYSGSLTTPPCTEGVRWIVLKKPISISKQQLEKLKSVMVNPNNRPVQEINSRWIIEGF

[2] = target: T2, Can2-CA (Cryptococcus neoformans, UniProt Q3I4V7); settings: read-out: Inhibition constant, Ki (μM) / β-family / Can2
T2 construct: recombinant beta-CA, produced as reported earlier; dimer in the docking model
T2 sequence (Q3I4V7 1-239): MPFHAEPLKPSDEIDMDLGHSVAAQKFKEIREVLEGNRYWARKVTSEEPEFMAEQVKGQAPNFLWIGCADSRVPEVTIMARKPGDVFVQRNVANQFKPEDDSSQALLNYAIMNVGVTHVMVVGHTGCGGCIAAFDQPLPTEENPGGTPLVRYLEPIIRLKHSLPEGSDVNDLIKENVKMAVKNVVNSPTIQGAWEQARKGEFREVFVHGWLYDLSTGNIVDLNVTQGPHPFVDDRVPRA

[3] = target: T3, hCA IX (Homo sapiens, UniProt Q16790); settings: read-out: Inhibition constant, Ki (μM) / α-family / CAI
T3 construct: gene CA9

[4] = target: T4, MgCA (Malassezia globosa, UniProt A8Q1N3); settings: read-out: Inhibition constant, Ki (μM) / β-family / Mg
T4 construct: gene MGL_1814
T4 sequence (A8Q1N3 1-241): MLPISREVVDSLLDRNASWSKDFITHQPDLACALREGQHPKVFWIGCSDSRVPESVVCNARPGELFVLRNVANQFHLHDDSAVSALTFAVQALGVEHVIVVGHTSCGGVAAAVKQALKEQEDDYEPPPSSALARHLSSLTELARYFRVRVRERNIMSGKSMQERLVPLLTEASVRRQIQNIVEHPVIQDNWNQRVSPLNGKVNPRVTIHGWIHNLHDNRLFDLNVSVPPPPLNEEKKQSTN

[5] = target: T5, VchCA (Vibrio cholerae, UniProt A0A086SLX8)
T5 construct: gene can
T5 sequence (A0A086SLX8 1-222): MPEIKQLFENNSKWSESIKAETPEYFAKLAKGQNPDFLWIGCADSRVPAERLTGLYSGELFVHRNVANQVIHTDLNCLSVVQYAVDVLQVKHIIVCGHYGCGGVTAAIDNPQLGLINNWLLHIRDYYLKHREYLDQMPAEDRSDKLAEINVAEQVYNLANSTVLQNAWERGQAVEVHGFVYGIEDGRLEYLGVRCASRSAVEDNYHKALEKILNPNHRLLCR

Compound	Ki [2] [µM]	Ki [5] [nM]	also measured
CCc1cc(C(C)C)[n+]([O-])c(N)c1C(N)=O [compound 16, 16]			Ki [1]: 58.5 µM
Cc1cnc(C(N)=O)c[n+]1[O-] [compound 31, 31]	1.3		
NC(=O)c1ncc[n+]([O-])c1N [compound 30, 30]	1.1		Ki [3]: > 100 µM; Ki [4]: 6.7 µM
CC(C)c1cc(-c2ccccc2)c(C(N)=O)c(N)[n+]1[O-] [compound 20, 20]			Ki [4]: 46.2 µM
CCc1cc(C(C)C)c(C(N)=O)c(N)[n+]1[O-] [compound 13, 13]		2800	
CCc1cc(C)[n+]([O-])c(N)c1C(N)=O [compound 19, 19]			Ki [1]: 42.2 µM
NC(=O)c1ccc[n+]([O-])c1N [compound 5, 5]	1.7	2100	
CCc1cc(-c2ccccc2)c(C(N)=O)c(N)[n+]1[O-] [compound 21, 21]		2200	
